Experiment: Plasma pharmacokinetics of BI 187004 after single oral doses (LC–MS/MS)
Conditions: male, human, plasma, po; for concentration at 36 h: planned time 36 h; for concentration at 48 h: planned time 48 h; for concentration at 72 h: planned time 72 h; for concentration at 96 h: planned time 96 h; for concentration at 0.5 h: planned time 0.5 h; for concentration at 1 h: planned time 1 h; for concentration at 1.5 h: planned time 1.5 h; for concentration at 2 h: planned time 2 h; for concentration at 2.5 h: planned time 2.5 h; for concentration at 3 h: planned time 3 h; for concentration at 4 h: planned time 4 h; for concentration at 5 h: planned time 5 h; for concentration at 6 h: planned time 6 h; for concentration at 8 h: planned time 8 h; for concentration at 10 h: planned time 10 h; for concentration at 12 h: planned time 12 h
[1] = 160 mg, BI 187004 plasma concentrations, 160 mg single oral, Max
[2] = 160 mg, BI 187004 plasma concentrations, 160 mg single oral, Mean
[3] = 160 mg, BI 187004 plasma concentrations, 160 mg single oral, Median
[4] = 160 mg, BI 187004 plasma concentrations, 160 mg single oral, Min
[5] = 160 mg, BI 187004 plasma concentrations, 160 mg single oral, gMean
[6] = 240 mg, BI 187004 plasma concentrations, Max, 240 mg single oral
[7] = 240 mg, BI 187004 plasma concentrations, Mean, 240 mg single oral
[8] = 240 mg, BI 187004 plasma concentrations, Median, 240 mg single oral
[9] = 240 mg, BI 187004 plasma concentrations, Min, 240 mg single oral
[10] = 240 mg, BI 187004 plasma concentrations, gMean, 240 mg single oral
[11] = 360 mg, BI 187004 plasma concentrations, 360 mg single oral, individual subjects
[12] = 360 mg, BI 187004 plasma concentrations, Max, 360 mg single oral
[13] = 360 mg, BI 187004 plasma concentrations, Mean, 360 mg single oral
[14] = 360 mg, BI 187004 plasma concentrations, Median, 360 mg single oral
[15] = 360 mg, BI 187004 plasma concentrations, Min, 360 mg single oral
[16] = 360 mg, BI 187004 plasma concentrations, gMean, 360 mg single oral

N#Cc1ccc2c(c1)[C@H]1CCCN(C(=O)c3ccc4[nH]cnc4c3)[C@H]1C2 [BI 187004]
concentration at 36 h [1]: 1.39 µM
concentration at 36 h [2]: 0.716 µM
concentration at 36 h [3]: 0.604 µM
concentration at 36 h [4]: 0.476 µM
concentration at 36 h [5]: 0.669 µM
concentration at 48 h [1]: 1 µM
concentration at 48 h [2]: 0.457 µM
concentration at 48 h [3]: 0.352 µM
concentration at 48 h [4]: 0.329 µM
concentration at 48 h [5]: 0.414 µM
concentration at 72 h [1]: 0.312 µM
concentration at 72 h [2]: 0.139 µM
concentration at 72 h [3]: 0.108 µM
concentration at 72 h [4]: 0.0859 µM
concentration at 72 h [5]: 0.125 µM
concentration at 96 h [1]: 0.0468 µM
concentration at 96 h [2]: 0.0338 µM
concentration at 96 h [3]: 0.0317 µM
concentration at 96 h [4]: 0.028 µM
concentration at 96 h [5]: 0.0332 µM
concentration at 96 h (160 mg, BI 187004 plasma concentrations, 160 mg single oral, individual subjects): 0.0302 µM
concentration at 24 h (160 mg, C24 gMean (%gCV), 160 mg single oral dose): 1.63 µM
AUC(0-inf) (240 mg): 109 µM·h
AUC(0-t) (240 mg): 71.7 µM·h
Cmax (240 mg): 7.12 µM
Tmax (240 mg): 1 h
Vd/F (240 mg): 124 L
half-life (240 mg): 13.4 h
concentration at 24 h (240 mg, BI 187004 plasma concentrations, 240 mg single oral, planned time 24 h, individual subjects): 2.18 µM
concentration at 0.5 h [6]: 8.44 µM
concentration at 1 h [6]: 10.7 µM
concentration at 1.5 h [6]: 9.03 µM
concentration at 2 h [6]: 9.22 µM
concentration at 2.5 h [6]: 8.51 µM
concentration at 3 h [6]: 6.98 µM
concentration at 4 h [6]: 8.42 µM
concentration at 5 h [6]: 6.78 µM
concentration at 6 h [6]: 6.37 µM
concentration at 8 h [6]: 5.38 µM
concentration at 10 h [6]: 5.8 µM
concentration at 12 h [6]: 3.9 µM
concentration at 24 h (240 mg, BI 187004 plasma concentrations, Max, 240 mg single oral, planned time 24 h): 2.63 µM
concentration at 36 h [6]: 1.34 µM
concentration at 48 h [6]: 0.794 µM
concentration at 72 h [6]: 0.323 µM
concentration at 96 h [6]: 0.181 µM
concentration at 0.5 h [7]: 5.21 µM
concentration at 1 h [7]: 7.49 µM
concentration at 1.5 h [7]: 6.42 µM
concentration at 2 h [7]: 6.26 µM
concentration at 2.5 h [7]: 6.3 µM
concentration at 3 h [7]: 5.15 µM
concentration at 4 h [7]: 5.51 µM
concentration at 5 h [7]: 4.78 µM
concentration at 6 h [7]: 4.33 µM
concentration at 8 h [7]: 3.85 µM
concentration at 10 h [7]: 3.45 µM
concentration at 12 h [7]: 2.59 µM
concentration at 24 h (240 mg, BI 187004 plasma concentrations, Mean, 240 mg single oral, planned time 24 h): 2.17 µM
concentration at 36 h [7]: 0.926 µM
concentration at 48 h [7]: 0.508 µM
concentration at 72 h [7]: 0.157 µM
concentration at 96 h [7]: 0.0639 µM
concentration at 0.5 h [8]: 5.53 µM
concentration at 1 h [8]: 8.43 µM
concentration at 1.5 h [8]: 6.89 µM
concentration at 2 h [8]: 6.78 µM
concentration at 2.5 h [8]: 7.27 µM
concentration at 3 h [8]: 5.84 µM
concentration at 4 h [8]: 5.68 µM
concentration at 5 h [8]: 5.43 µM
concentration at 6 h [8]: 5.27 µM
concentration at 8 h [8]: 4.37 µM
concentration at 10 h [8]: 3.7 µM
concentration at 12 h [8]: 2.89 µM
concentration at 24 h (240 mg, BI 187004 plasma concentrations, Median, 240 mg single oral, planned time 24 h): 2.32 µM
concentration at 36 h [8]: 0.887 µM
concentration at 48 h [8]: 0.461 µM
concentration at 72 h [8]: 0.0989 µM
concentration at 96 h [8]: 0.0364 µM
concentration at 0.5 h [9]: 0.13 µM
concentration at 1 h [9]: 0.44 µM
concentration at 1.5 h [9]: 0.811 µM
concentration at 2 h [9]: 0.543 µM
concentration at 2.5 h [9]: 0.605 µM
concentration at 3 h [9]: 0.388 µM
concentration at 4 h [9]: 0.575 µM
concentration at 5 h [9]: 0.494 µM
concentration at 6 h [9]: 0.452 µM
concentration at 8 h [9]: 0.181 µM
concentration at 10 h [9]: 0.313 µM
concentration at 12 h [9]: 0.258 µM
concentration at 24 h (240 mg, BI 187004 plasma concentrations, Min, 240 mg single oral, planned time 24 h): 1.53 µM
concentration at 36 h [9]: 0.567 µM
concentration at 48 h [9]: 0.255 µM
concentration at 72 h [9]: 0.0541 µM
concentration at 96 h [9]: 0.0158 µM
concentration at 0.5 h [10]: 3.18 µM
concentration at 1 h [10]: 5.34 µM
concentration at 1.5 h [10]: 5.15 µM
concentration at 2 h [10]: 4.71 µM
concentration at 2.5 h [10]: 4.84 µM
concentration at 3 h [10]: 3.84 µM
concentration at 4 h [10]: 4.28 µM
concentration at 5 h [10]: 3.7 µM
concentration at 6 h [10]: 3.28 µM
concentration at 8 h [10]: 2.65 µM
concentration at 10 h [10]: 2.6 µM
concentration at 12 h [10]: 1.99 µM
concentration at 24 h (240 mg, BI 187004 plasma concentrations, gMean, 240 mg single oral, planned time 24 h): 2.13 µM
concentration at 36 h [10]: 0.885 µM
concentration at 48 h [10]: 0.465 µM
concentration at 72 h [10]: 0.118 µM
concentration at 96 h [10]: 0.0419 µM
concentration at 24 h (240 mg, C24 gMean (%gCV), 240 mg single oral dose): 2.13 µM
AUC(0-inf) (360 mg): 191 µM·h
AUC(0-t) (360 mg): 135 µM·h
Cmax (360 mg): 13.4 µM
Tmax (360 mg): 1 h
Vd/F (360 mg): 110 L
half-life (360 mg): 13.9 h
concentration at 6 h [11]: 10.2 µM
concentration at 8 h [11]: 9.51 µM
concentration at 12 h [11]: 6.08 µM
concentration at 0.5 h [12]: 16.8 µM
concentration at 1 h [12]: 18.4 µM
concentration at 1.5 h [12]: 15.9 µM
concentration at 2 h [12]: 14.5 µM
concentration at 2.5 h [12]: 14.6 µM
concentration at 3 h [12]: 12.9 µM
concentration at 4 h [12]: 12.2 µM
concentration at 5 h [12]: 9.63 µM
concentration at 6 h [12]: 10.2 µM
concentration at 8 h [12]: 9.51 µM
concentration at 10 h [12]: 7.68 µM
concentration at 12 h [12]: 6.08 µM
concentration at 24 h (360 mg, BI 187004 plasma concentrations, Max, 360 mg single oral, planned time 24 h): 4.74 µM
concentration at 36 h [12]: 1.99 µM
concentration at 48 h [12]: 1.47 µM
concentration at 72 h [12]: 0.516 µM
concentration at 96 h [12]: 0.174 µM
concentration at 0.5 h [13]: 11.5 µM
concentration at 1 h [13]: 13.1 µM
concentration at 1.5 h [13]: 11.5 µM
concentration at 2 h [13]: 10.9 µM
concentration at 2.5 h [13]: 10.3 µM
concentration at 3 h [13]: 9.36 µM
concentration at 4 h [13]: 9.59 µM
concentration at 5 h [13]: 7.55 µM
concentration at 6 h [13]: 7.25 µM
concentration at 8 h [13]: 6.85 µM
concentration at 10 h [13]: 5.5 µM
concentration at 12 h [13]: 4.83 µM
concentration at 24 h (360 mg, BI 187004 plasma concentrations, Mean, 360 mg single oral, planned time 24 h): 2.84 µM
concentration at 36 h [13]: 1.48 µM
concentration at 48 h [13]: 0.898 µM
concentration at 72 h [13]: 0.301 µM
concentration at 96 h [13]: 0.095 µM
concentration at 0.5 h [14]: 11.6 µM
concentration at 1 h [14]: 13.3 µM
concentration at 1.5 h [14]: 11.6 µM
concentration at 2 h [14]: 10.8 µM
concentration at 2.5 h [14]: 10.2 µM
concentration at 3 h [14]: 9.34 µM
concentration at 4 h [14]: 10.3 µM
concentration at 5 h [14]: 7.87 µM
concentration at 6 h [14]: 6.45 µM
concentration at 8 h [14]: 6.27 µM
concentration at 10 h [14]: 5.62 µM
concentration at 12 h [14]: 4.63 µM
concentration at 24 h (360 mg, BI 187004 plasma concentrations, Median, 360 mg single oral, planned time 24 h): 2.66 µM
concentration at 36 h [14]: 1.49 µM
concentration at 48 h [14]: 0.869 µM
concentration at 72 h [14]: 0.281 µM
concentration at 96 h [14]: 0.0816 µM
concentration at 0.5 h [15]: 5.8 µM
concentration at 1 h [15]: 7.17 µM
concentration at 1.5 h [15]: 6.45 µM
concentration at 2 h [15]: 6.66 µM
concentration at 2.5 h [15]: 5.66 µM
concentration at 3 h [15]: 6.3 µM
concentration at 4 h [15]: 5.67 µM
concentration at 5 h [15]: 4.81 µM
concentration at 6 h [15]: 5.79 µM
concentration at 8 h [15]: 5.06 µM
concentration at 10 h [15]: 3.36 µM
concentration at 12 h [15]: 3.78 µM
concentration at 24 h (360 mg, BI 187004 plasma concentrations, Min, 360 mg single oral, planned time 24 h): 1.79 µM
concentration at 36 h [15]: 0.83 µM
concentration at 48 h [15]: 0.375 µM
concentration at 72 h [15]: 0.0691 µM
concentration at 96 h [15]: 0.0168 µM
concentration at 0.5 h [16]: 10.8 µM
concentration at 1 h [16]: 12.6 µM
concentration at 1.5 h [16]: 11.1 µM
concentration at 2 h [16]: 10.6 µM
concentration at 2.5 h [16]: 9.71 µM
concentration at 3 h [16]: 9.14 µM
concentration at 4 h [16]: 9.32 µM
concentration at 5 h [16]: 7.36 µM
concentration at 6 h [16]: 7.11 µM
concentration at 8 h [16]: 6.71 µM
concentration at 10 h [16]: 5.3 µM
concentration at 12 h [16]: 4.78 µM
concentration at 24 h (360 mg, BI 187004 plasma concentrations, gMean, 360 mg single oral, planned time 24 h): 2.69 µM
concentration at 36 h [16]: 1.41 µM
concentration at 48 h [16]: 0.814 µM
concentration at 72 h [16]: 0.246 µM
concentration at 96 h [16]: 0.0723 µM
concentration at 24 h (360 mg, C24 gMean (%gCV), 360 mg single oral dose): 2.69 µM

Source: publication PMC8364686, “Safety, tolerability, pharmacokinetics and pharmacodynamics of single oral doses of BI 187004, an inhibitor of 11beta-hydroxysteroid dehydrogenase-1, in healthy male volunteers with overweight or obesity” (Clinical Diabetes and Endocrinology, 2021)
